As usually defined, the EC50 is the concentration giving half of the maximal effect.

This assay addresses recombinant human AMPK complex 1 (containing α1β1γ1) (Homo sapiens, UniProt Q13131+Q9Y478). The experiment in a line: […] (in vitro AMPK activation assay). The assay is classed as biochemical. The settings on record: for Emax: basal activity subtracted.
Where [1] appears, read: recombinant human AMPK complex 1 (α1β1γ1), read-out: % Maximum AMP Activation of human AMPK Complex 1.
[2] abbreviates: read-out: % Maximum AMP Activation of human AMPK Complex 1, recombinant human AMPK complex 1 (α1β1γ1).
The mark [3] stands for this setting: recombinant human AMPK complex 1 (α1β1γ1), read-out: EC50.

Molecules are shown by their SMILES. Where a name gives a salt, the structure may show the parent alone. Read-outs that look alike come from different tables or passages of the source.

recombinant human AMPK complex 1 (containing α1β1γ1), sequence (Q13131 whole entry): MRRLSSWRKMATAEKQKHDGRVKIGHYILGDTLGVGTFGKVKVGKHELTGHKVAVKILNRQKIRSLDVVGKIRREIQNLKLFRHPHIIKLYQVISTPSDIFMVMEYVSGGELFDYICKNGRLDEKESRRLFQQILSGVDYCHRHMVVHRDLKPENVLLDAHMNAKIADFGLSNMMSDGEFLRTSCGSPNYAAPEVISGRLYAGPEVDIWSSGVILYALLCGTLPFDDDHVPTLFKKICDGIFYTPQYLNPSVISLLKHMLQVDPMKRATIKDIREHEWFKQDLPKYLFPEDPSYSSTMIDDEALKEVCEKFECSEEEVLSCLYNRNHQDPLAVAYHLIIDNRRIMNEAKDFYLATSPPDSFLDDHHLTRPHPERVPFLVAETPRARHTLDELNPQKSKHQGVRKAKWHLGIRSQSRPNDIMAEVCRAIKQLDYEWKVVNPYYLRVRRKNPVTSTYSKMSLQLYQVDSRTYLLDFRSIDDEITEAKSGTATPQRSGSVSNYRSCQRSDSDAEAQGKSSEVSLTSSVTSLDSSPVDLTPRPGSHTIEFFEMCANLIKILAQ
recombinant human AMPK complex 1 (containing α1β1γ1), sequence (Q9Y478 whole entry): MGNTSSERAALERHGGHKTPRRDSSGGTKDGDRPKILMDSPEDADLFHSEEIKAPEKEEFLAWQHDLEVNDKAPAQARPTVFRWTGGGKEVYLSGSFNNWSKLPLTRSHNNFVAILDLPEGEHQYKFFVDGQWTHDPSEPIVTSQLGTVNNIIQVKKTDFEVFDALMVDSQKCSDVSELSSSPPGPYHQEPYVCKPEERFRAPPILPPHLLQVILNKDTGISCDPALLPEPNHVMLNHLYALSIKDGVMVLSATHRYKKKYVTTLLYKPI
recombinant human AMPK complex 1 (containing α1β1γ1), sequence (P54619 whole entry partner): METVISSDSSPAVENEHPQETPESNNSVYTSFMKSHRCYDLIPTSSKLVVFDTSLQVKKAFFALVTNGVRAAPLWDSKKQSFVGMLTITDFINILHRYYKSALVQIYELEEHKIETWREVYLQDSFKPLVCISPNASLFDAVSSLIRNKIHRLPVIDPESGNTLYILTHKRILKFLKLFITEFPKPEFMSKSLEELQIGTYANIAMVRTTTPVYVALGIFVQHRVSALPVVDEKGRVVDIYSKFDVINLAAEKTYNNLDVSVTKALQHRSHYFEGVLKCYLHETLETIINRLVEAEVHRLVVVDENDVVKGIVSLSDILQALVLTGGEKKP

Take `CCCc1ccc(-c2cc3nc(Oc4ccc(C)c(C(=O)O)c4)[nH]c3cc2Cl)cc1.N` [Example 348, Ammonium 5-{[6-chloro-5-(4-propylphenyl)-1H-benzimidazol-2-yl]oxy}-2-methylbenzoate]: the “% Maximum AMP Activation of human AMPK Complex 1” value is “greater than 80%”.

Take `Cc1ccc(Oc2nc3cc(-c4ccc(C(C)O)cc4)c(Cl)cc3[nH]2)cc1C(=O)O` (centres unmarked) [Example 156, 5-{6-Chloro-5-[4-(1-hydroxy-ethyl)-phenyl]-1H-benzoimidazol-2-yloxy}-2-methyl-benzoic acid]: the Emax under setting [1] was over 80%.

Take `Cc1nc(-c2ccc(C#Cc3cc4nc(Oc5ccc(C)c(C(=O)O)c5)[nH]c4cc3Cl)cc2)no1` [Example 80, 5-{6-Chloro-5-[4-(5-methyl-[1,2,4]oxadiazol-3-yl)-phenylethynyl]-1H-benzoicmidazol-2-yloxy}-2-methyl-benzoic acid]: under setting [1], the Emax is over 80%.

Regarding `Cc1ccc(Oc2nc3cc(-c4cccc(N(C)C)c4)c(Cl)cc3[nH]2)cc1C(=O)O` [Example 346, Ammonium 5-({6-chloro-5-[3-(dimethylamino)phen-yl]-1H-benzimidazol-2-yl}oxy)-2-methylbenzoate], under setting [2], the Emax is over 80%.

`O=C(O)c1ccc(Oc2nc3cc(-c4ccc(-c5ccccc5)cc4)c(Cl)cc3[nH]2)cc1` [Example 38, 4-(5-Biphenyl-4-yl-6-chloro-1H-benzoimidazol-2-yloxy)-benzoic acid]: the Emax under setting [1] is over 80%.

In the case of `Cc1ccc(Oc2nc3cc(-c4ccc5[nH]c(=O)ccc5c4)c(Cl)cc3[nH]2)cc1C(=O)O` [Example 233, 5-[6-Chloro-5-(2-oxo-1,2-dihydro-quinolin-6-yl)-1H-benzoimidazol-2-yloxy]-2-methyl-benzoic acid], the Emax under setting [1] was over 80%.

Turning to `Cc1ccc(Oc2nc3cc(-c4ccc(-c5ccncc5)cc4)c(Cl)cc3[nH]2)cc1C(=O)O` [Example 168], the EC50 under setting [3] is 5 nM.

Take `Cc1ccc(Oc2nc3cc(C#Cc4ccc(-n5ccnc5)cc4)c(Cl)cc3[nH]2)cc1C(=O)O` [Example 86, 5-[6-Chloro-5-(4-imidazol-1-yl-phenylethynyl)-1H-benzoimidazol-2-yloxy]-2-methyl-benzoic acid]: under setting [1], the Emax is over 80%.

Take `Cc1ccc(Oc2nc3cc(-c4cc5ccccc5s4)c(Cl)cc3[nH]2)cc1C(=O)O` [Example 355, 5-(5-Benzo[b]thiophen-2-yl-6-chloro-1H-benzoimidazol-2-yloxy)-2-methyl-benzoic acid]: the Emax under setting [1] was over 80%.

With `Cc1ccc(Oc2nc3cc(-c4ccc(C(C)(C)C#N)cc4)c(Cl)cc3[nH]2)cc1C(=O)O` [Example 239, 5-{6-Chloro-5-[4-(cyano-dimethyl-methyl)-phenyl]-1H-benzoimidazol-2-yloxy}-2-methyl-benzoic acid], the Emax under setting [1] was over 80%.

`Cc1ccc(Oc2nc3cc(-c4ccc(-c5ccccc5)cc4)c(Cl)cc3[nH]2)cc1C(=O)NS(C)(=O)=O` [Example 221, N-[5-(5-Biphenyl-4-yl-6-chloro-1H-benzoimidazol-2-yloxy)-2-methyl-benzoyl]-methanesulfonamide]: under setting [1], the Emax is over 80%.

As for `COC(=O)c1cc(Oc2nc3cc(C#Cc4cccnc4)c(Cl)cc3[nH]2)ccc1C` [Example 133, 5-(6-Chloro-5-pyridin-3-ylethynyl-1H-benzoimidazol-2-yloxy)-2-methyl-benzoic acid methyl ester], under setting [1], the Emax is over 80%.

Consider `Cc1ccc(Oc2nc3cc(-c4ccc(C5CCCCC5)cc4)c(Cl)cc3[nH]2)cc1C(=O)O` [Example 357, 5-[6-Chloro-5-(4-cyclohexyl-phenyl)-1H-benzoimidazol-2-yloxy]-2-methyl-benzoic acid], for which the Emax under setting [1] is over 80%.

With `O=C(O)C1(c2ccc(Oc3nc4cc(-c5ccc(-c6ccccc6)cc5)c(Cl)cc4[nH]3)cc2)CC1` [Example 7, 1-[4-(5-Biphenyl-4-yl-6-chloro-1H-benzoimidazol-2-yloxy)-phenyl]-cyclopropanecarboxylic acid], under setting [1], the Emax is over 80%.

In the case of `O=C(O)c1cccc(Sc2nc3cc(-c4ccc(-c5ccccc5)cc4)c(Cl)cc3[nH]2)c1` [Example 64, 3-[(5-biphenyl-4-yl-6-chloro-1H-benizmidazol-2-yl)thio]benzoic acid], the Emax under setting [1] was over 80%.

`Cc1cc(Oc2nc3cc(-c4ccc(-c5ccccc5O)cc4)c(Cl)cc3[nH]2)cc(C(=O)O)c1` [Example 53, 3-[6-Chloro-5-(2′-hydroxy-biphenyl-4-yl)-1H-benzoimidazol-2-yloxy]-5-methyl-benzoic acid]: the Emax under setting [1] was over 80%.

As for `Cc1ccc(Oc2nc3cc(-c4ccc(-n5cccn5)cc4)c(Cl)cc3[nH]2)cc1C(=O)O` [Example 58, 5-[6-Chloro-5-(4-pyrazol-1-yl-phenyl)-1H-benzoimidazol-2-yloxy]-2-methyl-benzoic acid], the Emax under setting [1] is over 80%.

As to `Cc1ccc(Oc2nc3cc(-c4ccc(-c5ccccc5)cc4)c(Cl)cc3[nH]2)cc1C(=O)O` [Example 1, 5-[(5-biphenyl-4-yl-6-chloro-1H-benzimidazol-2-yl)oxy]-2-methylbenzoic acid], the concentration for a half-maximal effect (EC50) worked out at 8 nM.

Consider `Cc1ccc(Oc2nc3cc(-c4ccc5c(c4)[nH]c4ccccc45)c(Cl)cc3[nH]2)cc1C(=O)O` [Example 147, 5-[5-(9H-Carbazol-2 yl)-6-chloro-1H-benzoimidazol-2-yloxy]-2-methyl-benzoic acid], for which the Emax under setting [1] is over 80%.

In the case of `Cc1ccc(Oc2nc3cc(-c4ccc(-c5ccccc5O)cc4)c(F)cc3[nH]2)cc1C(=O)O` [Example 232, 5-{[6-fluoro-5-(2′-hydroxybiphenyl-4-yl)-1H-benzimidazol-2-yl]oxy}-2-methylbenzoic acid], the EC50 under setting [3] is 1 nM.

For `Cc1ccc(Oc2nc3cc(-c4ccc5ccccc5c4)c(Cl)cc3[nH]2)cc1C(=O)O` [Example 66, 5-{[6-chloro-5-(2-naphthyl)-1H-benzimidazol-2-yl]oxy}-2-methylbenzoic acid], the Emax under setting [1] was over 80%.

Take `Cc1ccc(Oc2nc3cc(-c4ccc5c(c4)c(C#N)cn5C)c(Cl)cc3[nH]2)cc1C(=O)O` [Example 349, 2-(3-carboxy-4-methylphenoxy)-6-chloro-5-(3-cyano-1-methyl-1H-indol-5-yl)-1H-3,1-benzimidazol-3-ium trifluoroacetate]: the Emax under setting [1] is over 80%.

With `Cc1cccc(C#Cc2cc3nc(Oc4ccc(C)c(C(=O)O)c4)[nH]c3cc2Cl)c1` [Example 97, 5-(6-Chloro-5-m-tolylethynyl-1H-benzoimidazol-2-yloxy)-2-methyl-benzoic acid], under setting [1], the Emax is over 80%.

With `COc1ccccc1-c1ccc(-c2cc3nc(Oc4ccc(C)c(C(=O)O)c4)[nH]c3cc2Cl)cc1` [Example 194, 5-{[6-chloro-5-(2′-methoxybiphenyl-4-yl)-1H-benzimidazol-2-yl]oxy}-2-methylbenzoic acid], the Emax under setting [1] was over 80%.

Turning to `COC(=O)Cn1c(Oc2ccc(C)c(C(=O)OC)c2)nc2cc(-c3ccc(-c4ccccc4)cc3)c(Cl)cc21` [Example 223, 5-(5-Biphenyl-4-yl-6-chloro-1-methoxycarbonyl-methyl-1H-benzoimidazol-2-yloxy)-2-methyl-benzoic acid methyl ester], the Emax under setting [1] is over 80%.

As to `Cc1cc(Oc2nc3cc(-c4ccc(-c5ccccc5)cc4)c(Cl)cc3[nH]2)cc(C(=O)O)c1` [Example 50, 3-(5-Biphenyl-4-yl-6-chloro-1H-benzoimidazol-2-yloxy)-5-methyl-benzoic acid], the Emax under setting [1] was over 80%.

For the molecule `O=C(O)Cn1nnnc1Sc1nc2cc(-c3ccc(-c4ccccc4)cc3)c(Cl)cc2[nH]1` [Example 55, [5-(5-biphenyl-4-yl-6-chloro-1H-benzo-imidazol-2-ylsulfanyl)-tetrazol-1-yl]-acid, ammonium salt], under setting [2], the Emax is over 80%.

As to `Cc1ccc(Oc2nc3cc(-c4ccc5c(c4)cc(-c4ccccc4)n5C)c(Cl)cc3[nH]2)cc1C(=O)O` [Example 277, 5-[6-Chloro-5-(1-methyl-2-phenyl-1H-indol-5-yl)-1H-benzoimidazol-2-yloxy]-2-methyl-benzoic acid], the Emax under setting [1] is over 80%.

`Cc1ccc(Oc2nc3cc(C#Cc4ccc(-c5ccccn5)cc4)c(Cl)cc3[nH]2)cc1C(=O)O` [Example 90, 5-[6-Chloro-5-(4-pyridin-2-yl-phenylethynyl)-1H-benzoimidazol-2-yloxy]-2-methyl-benzoic acid]: the Emax under setting [1] is over 80%.

`Cc1ccc(Oc2nc3cc(-c4ccc5cnccc5c4)c(Cl)cc3[nH]2)cc1C(=O)O` [Example 280, 5-(6-Chloro-5-isoquinolin-6-yl-1H-benzoimidazol-2-yloxy)-2-methyl-benzoic acid]: under setting [1], the Emax is over 80%.

Take `Cc1ccc(Oc2nc3cc(C4=CCN(c5ncccn5)CC4)c(Cl)cc3[nH]2)cc1C(=O)O` [Example 158, 2-(3-carboxy-4-methylphenoxy)-6-chloro-5-(1-pyrimidin-2-yl-1,2,3,6-tetrahydropyridin-4-yl)-1H-3,1-benzimidazol-3-ium trifluoroacetate]: under setting [1], the Emax is over 80%.

Regarding `Cc1ccc(Oc2nc3cc(-c4ccc(-c5ccc(C(=O)O)cc5)cc4)c(F)cc3[nH]2)cc1C(=O)O` [Example 184, 4′-[2-3-carboxy-4-methylphenoxy-6-fluoro-1H-benzimidazol-5-yl]biphenyl-4-carboxylic acid], under setting [3], the EC50 amounted to 8 nM.

Turning to `Cc1ccc(Oc2nc3cc(-c4ccc(-c5ccccc5)cc4)c(F)cc3[nH]2)cc1C(=O)O` [Example 365, 5-[(5-biphenyl-4-yl-6-fluoro-1H-benzimidazol-2-yl)oxy]-2-methylbenzoic acid], the EC50 under setting [3] was found to be 9 nM.

Consider `Cc1cc(-c2cc3nc(Oc4ccc(C)c(C(=O)O)c4)[nH]c3cc2Cl)ccc1F` [Example 328, Ammonium 5-{[6-chloro-5-(4-fluoro-3-methylphenyl-1H-benzimidazol-2-yl]oxy}-2-methylbenzoate], for which the Emax under setting [2] is over 80%.

`Cc1ccc(Oc2nc3cc(C#Cc4ccc(=O)[nH]c4)c(Cl)cc3[nH]2)cc1C(=O)O` [Example 128, 5-[6-Chloro-5-(6-oxo-1,6-dihydro-pyridin-3-ylethynyl)-1H-benzoimidazol-2-yloxy]-2-methyl-benzoic acid]: the Emax under setting [1] is over 80%.

The values above are taken from US8394969B2, “Cyclic benzimidazole derivatives useful as anti-diabetic agents” (Merck Sharp & Dohme Corp., priority 2008, dated 2013).
